Laboratory results taken from patent US20250154238A1, “METHODS AND COMPOSITIONS FOR TREATING AND PREVENTING FIBROSIS” (YALE UNIVERSITY, priority 2022, published 2025).

Experiments:
[1] = system: lung explants from a patient with IPF; assay: IPF patient lung explant culture, gene expression and secreted proteins; format: cell-based, human; settings: 10 days; nintedanib 0.1 μM, Alk5i 10 μM, Ereg Ab 2.5 μg/ml
Procedure: FIGS. 13A-13I show epiregulin inhibition reduces mouse and human lung fibrosis. (FIGS. 13A-13E) As diagramed in (FIG. 13A), 10 days after intratracheal bleomycin mice began treatment with epiregulin antibody for two weeks prior to euthanasia. Lungs were analyzed for histology (FIG. 13B), modified Ashcroft score (FIG. 13C), hydroxyproline (FIG. 13D) and epiregulin gene expression (FIG. 13E), n=6 (PBS), 11 (BLM), and 7 (Ereg Ab). Histology images in (FIG. 13B) are 10× magnification with 200 μm scale bars and IHC images are 40× magnification with 40 μm scale bars. […] The same tissue was cut into cubes and cultured for 10 days in the presence of the multikinase inhibitor nintedanib 0.1 μM (Nin), the Alk5 inhibitor A-1544033 (IN-1130) 10 μM (Alk5i), epiregulin antibody 2.5 μg/ml (Ereg Ab) or non-treated vehicle control (NT). (FIGS. 13G-13I) Relative expression of indicated genes, n=4 per group. (FIG. 13I) Protein secretion of indicated genes measured by ELISA, n=8 per group. ELISA samples with poor signal and qPCR outliers identified by Grubbs's test with alpha-0.05 were excluded. Data are means±SD (ns, not significant. * P<0.05, ** P<0.01, **** P<0.0001) analyzed with one-way analysis of variance (ANOVA) with Tukey multiple-comparisons test (FIGS. 13C-13E) and Dunnett's multiple-comparisons test (FIGS. 13G-13I).
Pathologic assessment confirmed the diagnosis of early IPF, as evidenced by the presence of fibroblastic foci and hyperplasia of alveolar type II epithelial cells as shown in FIG. 13F. Lung tissue was plated in 24 well plates and cultured for 10 days with media changes every two days. The impact of epiregulin antibody compared to the multikinase inhibitor nintedanib and a transforming growth factor beta type I receptor TGF-βRI/Alk5 small molecule inhibitor was assessed by measuring disease relevant endpoints in gene expression and protein production. At the gene level, reduction in epiregulin expression was observed which was similar to that seen in mouse lung by both epiregulin and TGF-βRI inhibition (FIG. 13G, left panel). […] ECM-remodeling and inflammation. […]
For lung explants, human IPF lung (person) was obtained from the National Disease Research Interchange (NDRI), kept cold, and received <24 hours after cross-clamp. […] After 10 days, culture supernatants were collected, pre-cleared at 4000× g (4° C. 10 mins), transferred to a clean 96 well polypropylene plate and stored at −80° C., until protein endpoints measured. Measured secreted proteins include: human MCP-1 V-Plex (MesoScale Discovery, K151NND-1), human TIMP-1 (MesoScale Discovery, K151JFC-1) and human pro-collagen 1α1 DuoSet Elisa (R&D systems, DY6220-05). All proteins were assayed and analyzed in accordance with their respective assay product datasheets. […]

[2] = data from European Medicines Agency; read-out: KD (×10^−12); cited from earlier work
[3] = data from European Medicines Agency; tocilizumab from reference 80; cited from earlier work

Molecule	COL1A1 gene expression, IPF lung explant [1]	epiregulin gene expression, IPF lung explant [1]	pro-COL1A1 protein level, IPF lung explant [1]	Kd [2] [nM]	IC50 [3] [nM]
Cc1cccc(-c2[nH]c(Cc3cccc(C(N)=O)c3)nc2-c2ccc3nccnc3c2)n1 [TGF-βRI/Alk5 small molecule inhibitor]	significantly reduced expression	reduction	significant reduction		
COC(=O)c1ccc2c(c1)NC(=O)/C2=C(\Nc1ccc(N(C)C(=O)CN2CCN(C)CC2)cc1)c1ccccc1 [nintedanib]			significant reduction		
Adalimumab				0.058 to 0.087	0.1 to 1
Rizankizumab: FDA-approved monoclonal antibody medication				0.029	0.024
Tocilizumab: FDA-approved monoclonal antibody medication				2.5	0.09
